Experiments:
[1] = Cytotoxicity determination in HepG2.2.15 cells (CCK-8 cell viability); type: cell-based; settings: human, 6 days treatment, CCK-8 assay, highest concentration 100 uM
Experimental: (§1) HepG2.2.15 (the HepG2.2.15 cell line can be produced by transfection of the HepG2 cell line as described in Sells, Chen, and Acs 1987 (Proc. Natl. Acad. Sci. USA 84: 1005-1009), and the HepG2 cell line is available from ATCC® under number HIB-8065™)
(§2) HepG2.2.15 cells were plated into 96-well plate in 2% FBS culture medium at the density of 40,000 cells/well and 5,000 cells/well for HBV inhibitory activity and cytotoxicity determination, respectively. After incubation at 37° C., 5% CO2 overnight, cells were treated with medium containing compounds for 6 days with medium and compounds refreshed after 3 days of treatment. Each compound was tested in a 1:3 serial dilutions at 8 different concentrations in triplicate. The highest concentration of the compounds was 10 uM or 1 uM for anti-HBV activity assay and 100 uM for cytotoxicity determination.
Cell viability was determined by CCK-8 assay. After 6 days of compounds treatment, 20 μl CCK-8 reagents were added to each well of cytotoxicity assay plates. Cell plates were incubated at 37° C., 5% CO2 for 2.5 h. The absorbance at 450 nm wavelength and the absorbance at 630 nm wavelength as reference was measured.
(§3) 2) DATA Analysis EC50 and CC50 values are calculated by the GRAPTIPAD PRISM software.

[2] = system: HBV; assay: Anti-HBV activity in HepG2.2.15 cells (HBV DNA in culture medium by qPCR); type: cell-based; settings: Hepatitis B virus, HepG2.2.15, 144 h, HepG2.2.15 cells, 6 days treatment, HBV DNA in culture medium quantified by real-time PCR; read-out: EC50
Experimental: Example 2: Anti-Viral Assay in HepG2.2.15 Cells
as §1, §2
The change of HBV DNA level induced by the compounds was assessed by quantitative real-time polymerase chain reaction (qPCR). Briefly, the HBV DNA in the culture medium was extracted using QIAamp 96 DNA Blood Kit according to the manual and then quantified by real-time PCR assay using the primers and probe in the table 2 below.
as §3

Row | SMILES | CC50 at 6 days [1] [nM] | EC50 [2] [nM]
1 | CCOC(=O)C1=C(CN2CC(F)(F)[C@@H]3CN(C(=O)NS(C)(=O)=O)C[C@@H]32)NC(c2nccs2)=N[C@H]1c1cccc(F)c1C (single isomer, unassigned) [Compound 31] | 85800 | 106
2 | CCOC(=O)C1=C(CN2CC(F)(F)[C@@H]3CN(S(=O)(=O)NC(C)=O)C[C@@H]32)NC(c2nccs2)=N[C@H]1c1cccc(F)c1C (single isomer, unassigned) [Compound 32] | 31800 | 3.4
3 | CCOC(=O)C1=C(CN2CC(F)(F)[C@@H]3CN(S(N)(=O)=O)C[C@@H]32)NC(c2nccs2)=N[C@H]1c1cccc(F)c1C (single isomer, unassigned) [Compound 33] | 14600 | 2.4
4 | CCOC(=O)C1=C(CN2CC(F)(F)[C@H]3[C@@H]2CCN3S(N)(=O)=O)NC(c2nccs2)=N[C@H]1c1cccc(F)c1C (single isomer, unassigned) [Compound 34] | 14300 | 12
5 | CCOC(=O)C1=C(CN2CC(F)(F)[C@@H]3CN(C(N)=O)C[C@@H]32)NC(c2nccs2)=N[C@H]1c1cccc(F)c1C (single isomer, unassigned) [Compound 35] | 35200 | 13.3
6 | CCOC(=O)C1=C(CN2CC(F)(F)[C@H]3[C@@H]2CCN3C(N)=O)NC(c2nccs2)=N[C@H]1c1cccc(F)c1C (single isomer, unassigned) [Compound 36] | 26000 | 30.1
7 | COC(=O)C1=C(CN2CC(F)(F)[C@@H]3C(=O)N(CC(C)(C)C(=O)O)C[C@@H]32)NC(c2ncoc2C)=N[C@H]1c1ccc(F)cc1Cl (single isomer, unassigned) [Compound 41, 3-((cis)-1-((6-(2-chloro-4-fluorophenyl)-5-(methoxycarbonyl)-2-(5-methyloxazol-4-yl)-3,6-dihydropyrimidin-4-yl)methyl)-3,3-difluoro-4-oxohexahydropyrrolo[3,4-b]pyrrol-5(1H)-yl)-2,2-dimethylpropanoic acid] | > 100000 | 93.8
8 | COC(=O)C1=C(CN2CC(F)(F)[C@@H]3C(=O)N(CC(C)(C)C(=O)O)C[C@@H]32)NC(c2nccs2)=N[C@H]1c1ccc(F)c(F)c1Cl (single isomer, unassigned) [Compound 42, 3-((cis)-1-((6-(2-Chloro-3,4-difluorophenyl)-5-(methoxycarbonyl)-2-(thiazol-2-yl)-3,6-dihydropyrimidin-4-yl)methyl)-3,3-difluoro-4-oxohexahydropyrrolo[3,4-b]pyrrol-5(1H)-yl)-2,2-dimethylpropanoic acid] | > 100000 | 13.8
9 | CCOC(=O)C1=C(CN2CC(F)(F)[C@@H]3C(=O)N(CC(C)(C)C(=O)O)C[C@@H]32)NC(c2nccs2)=N[C@H]1c1cccc(F)c1Cl (single isomer, unassigned) [Compound 43, 3-((cis)-1-((6-(2-chloro-3-fluorophenyl)-5-(ethoxycarbonyl)-2-(thiazol-2-yl)-3,6-dihydropyrimidin-4-yl)methyl)-3,3-difluoro-4-oxohexahydropyrrolo[3,4-b]pyrrol-5(1H)-yl)-2,2-dimethylpropanoic acid] | 50200 | 4.1
10 | CCOC(=O)C1=C(CN2CC(F)(F)[C@@H]3C(=O)N([C@H]4CC[C@@H](C(=O)O)CC4)C[C@@H]32)NC(c2nccs2)=N[C@H]1c1cccc(F)c1C (single isomer, unassigned) [Compound 44A] | > 100000 | 56.7
11 | CCOC(=O)C1=C(CN2CC(F)(F)[C@@H]3CN(S(=O)(=O)CC(C)(C)C(=O)O)C[C@@H]32)NC(c2nccs2)=N[C@H]1c1cccc(F)c1C (single isomer, unassigned) [Compound 46] | 20900 | 39.4
12 | CCOC(=O)C1=C(CN2CC(F)(F)[C@@H]3CN(CC4(CC(=O)O)CC4)C[C@@H]32)NC(c2nccs2)=N[C@H]1c1cccc(F)c1C (single isomer, unassigned) [Compound 48] | > 100000 | 105

— US20230083012A1, “DIHYDROPYRIMIDINE DERIVATIVES AND USES THEREOF IN THE TREATMENT OF HBV INFECTION OR OF HBV-INDUCED DISEASES” (priority 2019, published 2023)
